Legend:
mouse MALAT RNA = assay: MALAT RNA reduction in vivo, C57BL6/J mice, multiple dose; conditions: for ED50: IV day 0, 4, 8
Description: Compound Nos. 556089, 1229761, and 1229762 are described in Table 1 above. Compound Nos. 556089, 1229761, and 1229762 were tested in C57BL6/J mice. The mice were divided into groups of 4 mice each. […] The mice were then sacrificed on day 12. Heart, adipose, adrenal, kidney, and liver tissue was then collected and homogenized and RNA analysis was performed. A group of 4 mice received PBS as a negative control.
RNA was extracted from heart, adipose, adrenal, kidney, and liver tissue for real-time PCR analysis of measurement of RNA expression of MALAT using primer probe set mMALAT1 #2 (forward sequence […] (SEQ ID NO: 5); reverse sequence […] (SEQ ID NO: 6); probe sequence […] (SEQ ID NO: 7)). Results are presented as percent change of RNA, relative to PBS control, normalized to mouse GAPDH.

human MALAT1 RNA [1] = assay: MALAT1 RNA reduction in HEK-AGTR1 FAP cells, free uptake, 48 hours; assay type: cell-based; conditions: for MALAT (% control): relative to untreated control cells
Description: At the end of the treatment period, total RNA was isolated from the cells and MALAT1 RNA levels were measured by quantitative real-time PCR. […] MALAT1 RNA levels were normalized according to total RNA content, as measured by RIBOGREEN®. […] The half maximal inhibitory concentration (IC50) of each modified oligonucleotide was calculated using a non-linear fit [inhibitor] vs. response-variable slope (three parameters) formula in GraphPad Prism 7.01.

human MALAT1 RNA [2] = assay: MALAT1 RNA reduction in HEK-AGTR1 FAP cells, free uptake, 24 hours; assay type: cell-based; conditions: for MALAT (% control): relative to untreated control cells
Description: At the end of the treatment period, total RNA was isolated from the cells and MALAT1 RNA levels were measured by quantitative real-time PC&. […] MALAT1 RNA levels were normalized according to total RNA content, as measured by RIBOGREEN®. Reduction of MALAT1 RNA is presented Table 3 below as percent MALAT1 RNA amount relative to untreated control (UTC) cells. The half maximal inhibitory concentration (IC50) of each modified oligonucleotide was calculated using a non-linear fit [inhibitor] vs. response—variable slope (four parameters) formula in GraphPad Prism 7.01.

HEK-APLNR FAP cells = assay: IP1 accumulation negative control in HEK-APLNR FAP cells (do not express AGTR1); assay type: cell-based, human; conditions: 24 hours
Description: Activated AGTR1 couples to the Gαq subunit of heterotrimeric G proteins, which activates the phospholipase C (PLC) and subsequently inositol 1,4,5-trisphosphate (IP3) signaling cascade. AGTR1 signaling was measured using an IP-One Gq kit (cisbio #62IPAPEB). The kit detects the accumulation of inositol monophosphate (IP1), a stable downstream metabolite of IP3 induced by activation of a phospholipase C (PLC) cascade.
As a negative control, Compound Nos. 556089 and 1229761 were also tested in HEK293 cells expressing FAP tagged human Apelin receptor (HEK-APLNR FAP cells from Spectragenetics). […] HEK-APLNR FAP cells were cultured with Compound Nos. 556089 and 1229761, described herein above, at the concentrations detailed in Table 2 for 24 hours.

In the case of “Compound No. 1229761: Angiotensin II peptide [N6-(2-azidoacetyl)-K]DRVYIHPF conjugated via linker to 5′-end of MALAT1 modified oligonucleotide TCAGCATTCTAATAGCAGC”, the “MALAT-1 RNA (% control)” value (mouse MALAT RNA; Adipose, 0.4 μmol/kg IV day 0, 4, 8, sacrifice day 12, relative to PBS) is reported as 66.2 % control, the “MALAT-1 RNA (% control)” value (mouse MALAT RNA; Adipose, 1.2 μmol/kg IV day 0, 4, 8, sacrifice day 12, relative to PBS) is reported as 33.0 % control and the “MALAT-1 RNA (% control)” value (mouse MALAT RNA; Adipose, 3.6 μmol/kg IV day 0, 4, 8, sacrifice day 12, relative to PBS) is reported as 15.5 % control. For the same substance, the ED50 (mouse MALAT RNA; Adipose) was 0.1 µmol/kg, the “MALAT-1 RNA (% control)” value (mouse MALAT RNA; Adrenal, 0.4 μmol/kg IV day 0, 4, 8, sacrifice day 12, relative to PBS) was 90.3 % control and the “MALAT-1 RNA (% control)” value (mouse MALAT RNA; Adrenal, 1.2 μmol/kg IV day 0, 4, 8, sacrifice day 12, relative to PBS) was 59.7 % control. For the same substance, the “MALAT-1 RNA (% control)” value (mouse MALAT RNA; Adrenal, 3.6 μmol/kg IV day 0, 4, 8, sacrifice day 12, relative to PBS) was 41.5 % control, the ED50 (mouse MALAT RNA; Adrenal) was 1.091 µmol/kg and the “MALAT-1 RNA (% control)” value (mouse MALAT RNA; Heart, 0.4 μmol/kg IV day 0, 4, 8, sacrifice day 12, relative to PBS) was 82.3 % control. For the same substance, the “MALAT-1 RNA (% control)” value (mouse MALAT RNA; Heart, 1.2 μmol/kg IV day 0, 4, 8, sacrifice day 12, relative to PBS) was 68.7 % control, the “MALAT-1 RNA (% control)” value (mouse MALAT RNA; Heart, 3.6 μmol/kg IV day 0, 4, 8, sacrifice day 12, relative to PBS) was 31.7 % control and the ED50 (mouse MALAT RNA; Heart) was 2.686 µmol/kg. For the same substance, the “MALAT-1 RNA (% control)” value (mouse MALAT RNA; Kidney, 0.4 μmol/kg IV day 0, 4, 8, sacrifice day 12, relative to PBS) was 53.8 % control, the “MALAT-1 RNA (% control)” value (mouse MALAT RNA; Kidney, 1.2 μmol/kg IV day 0, 4, 8, sacrifice day 12, relative to PBS) was 39.6 % control and the “MALAT-1 RNA (% control)” value (mouse MALAT RNA; Kidney, 3.6 μmol/kg IV day 0, 4, 8, sacrifice day 12, relative to PBS) was 21.4 % control. For the same substance, the ED50 (mouse MALAT RNA; Kidney) was 1.88 µmol/kg, the “MALAT-1 RNA (% control)” value (mouse MALAT RNA; Liver, 0.4 μmol/kg IV day 0, 4, 8, sacrifice day 12, relative to PBS) was 34.7 % control and the “MALAT-1 RNA (% control)” value (mouse MALAT RNA; Liver, 1.2 μmol/kg IV day 0, 4, 8, sacrifice day 12, relative to PBS) was 12 % control. The “MALAT-1 RNA (% control)” value (mouse MALAT RNA; Liver, 3.6 μmol/kg IV day 0, 4, 8, sacrifice day 12, relative to PBS) was 5.7 % control, the ED50 (mouse MALAT RNA; Liver) was 0.063 µmol/kg and the “MALAT (% control)” value (human MALAT1 RNA [1]; 2.7 nM, 48 hours) was 94 % control. For the same substance, the “MALAT (% control)” value (human MALAT1 RNA [1]; 8.2 nM, 48 hours) was 98 % control, the “MALAT (% control)” value (human MALAT1 RNA [1]; 24.7 nM, 48 hours) was 92 % control and the “MALAT (% control)” value (human MALAT1 RNA [1]; 74.1 nM, 48 hours) was 85 % control. For the same substance, the “MALAT (% control)” value (human MALAT1 RNA [1]; 222.2 nM, 48 hours) was 53 % control, the “MALAT (% control)” value (human MALAT1 RNA [1]; 666.7 nM, 48 hours) was 26 % control and the “MALAT (% control)” value (human MALAT1 RNA [1]; 2000 nM, 48 hours) was 18 % control. The “MALAT (% control)” value (human MALAT1 RNA [1]; 6000 nM, 48 hours) was 16 % control, the “MALAT (% control)” value (human MALAT1 RNA [1]; .10 nM, 48 hours) was 85 % control and the “MALAT (% control)” value (human MALAT1 RNA [1]; .3 nM, 48 hours) was 99 % control. For the same substance, the “MALAT (% control)” value (human MALAT1 RNA [1]; .9 nM, 48 hours) was 91 % control, the IC50 (human MALAT1 RNA [1]; MALAT1 RNA, 48 hours, three parameter fit) was 290 nM and the “reduction of target RNA in words” value (human MALAT1 RNA [1]; compared to parent unconjugated Compound No. 556089, 48 hours) was “significantly greater reduction of target RNA”. The “MALAT (% control)” value (human MALAT1 RNA [2]; 12 nM, 24 hours) was 126 % control, the “MALAT (% control)” value (human MALAT1 RNA [2]; 111 nM, 24 hours) was 76 % control and the “MALAT (% control)” value (human MALAT1 RNA [2]; 333 nM, 24 hours) was 63 % control. The “MALAT (% control)” value (human MALAT1 RNA [2]; 1000 nM, 24 hours) was 67 % control, the “MALAT (% control)” value (human MALAT1 RNA [2]; 3000 nM, 24 hours) was 36 % control and the “MALAT (% control)” value (human MALAT1 RNA [2]; 9000 nM, 24 hours) was 33 % control. For the same substance, the IC50 (human MALAT1 RNA [2]; MALAT1 RNA, 24 hours, four parameter fit) was 182 nM, the “reduction of target RNA in words” value (human MALAT1 RNA [2]; compared to parent unconjugated Compound No. 556089, 24 hours) was “significantly greater reduction of target RNA” and the IP1 accumulation (HEK-APLNR FAP cells; 0.0256 nM) was 590 nM. It also gave an IP1 accumulation (HEK-APLNR FAP cells; 0.128 nM) of 477 nM, an IP1 accumulation (HEK-APLNR FAP cells; 0.64 nM) of 564 nM and an IP1 accumulation (HEK-APLNR FAP cells; 3.2 nM) of 510 nM. For the same substance, the IP1 accumulation (HEK-APLNR FAP cells; 16 nM) was 505 nM, the IP1 accumulation (HEK-APLNR FAP cells; 80 nM) was 492 nM and the IP1 accumulation (HEK-APLNR FAP cells; 400 nM) was 425 nM. It also gave an IP1 accumulation (HEK-APLNR FAP cells; 2000 nM) of 472 nM.
